Measured values taken from patent US20230241226A1, “COMPOUNDS FOR TARGETED DEGRADATION OF CARRIER PROTEINS AND USES THEREOF” (CeMM - Forschungszentrum für Molekulare Medizin GmbH, priority 2019, published 2023).

Key:
Type in all cases: cell-based
Strep/HA SLC9A5 = target: T1, Strep/HA SLC9A5 (Homo sapiens, UniProt Q14940); assay: Selectivity across SLC9 family: degradation of exogenous Strep/HA SLC9A5; settings: HAP1; 250 or 750 nM; 16 hours
T1 construct: expressed in transfected cells; host or cells: HAP1 (lentiviral, pRRL Strep-HA; cDNA synthesized by Genescript)
Description: (E) Selectivity of d9A1-2 was tested across HAP1 cell lines expressing Strep/HASLC9A1, 9A4, 9A5, 9A8, 9A2, 9B2, 9A6, 9A9, and 9A3. Cells were treated with varying concentrations of d9A1-2 for 16 hours, after which degradation of the exogenous SLCs was monitored.
(§1) SLC1A5, SLC2A1, SLC2A3, SLC16A1, SLC38A1, SLC38A2 were obtained as gateway-compatible pENTR/pDONR vectors from the Harvard PlasmID Repository. SLC39A7 was obtained from Dharmacon, GE Healthcare. The following vectors were synthesized by Genescript: SLC4A4, SLC7A3, SLC38A9, SLC25A1, SLC9A1, SLC9A2, SLC9A3, SLC9A4, SLC9A5, SLC9A6, SLC9A7, SLC9A8, and SLC9B2. SLC30A9, SLC33A1, SLC35B2, SLC25A26, and MTCH2 were a gift from the RESOLUTE consortium. cDNAs were transferred into gateway-compatible lentiviral expression vectors: pLX305 dTAG vectors (Addgene #91797/8) or pRRL Strep-HA (described previously43, EF1a promotor driven expression) using LR recombination (ThermoFisher Scientific). […]
(§2) For immunoblotting, whole cell extracts were prepared using RIPA lysis buffer (25 mM Tris/HCl pH 7.6, 150 mM NaCl, 1% NP-40, 1% sodium deoxycholate, 0.1% SDS, EDTA-free protease inhibitor (Roche) and phosphatase inhibitors 2+3 (Sigma- Aldrich)). […] Protein extracts were quantified and normalized using the BCA assay (Thermo Scientific). […]

dTAG-HA SLC38A1 = target: T2, dTAG-HA SLC38A1 (Homo sapiens, UniProt Q96SW2+Q9H2H9); assay: Targeted degradation of dTAG-tagged SLC38A1 (western blot)
T2 construct: expressed in transfected cells
Description: (A) HAP1 cells expressing dTAG-HA SLC38A9, 38A2, or 38A1 were treated with 0.5 µM dTAG13 for 16, 24 or 48 hours.
as §1, §2
SLCs were ectopically expressed as fusions to a mutated FKBP domain, also known as the dTAG system. […] Each of the tested SLCs was stably expressed in HAP1 cells, and subcellular localization was assessed by immunofluorescence microscopy (FIG. 1B). […]

dTAG-HA SLC16A1 = target: T3, dTAG-HA SLC16A1 (Homo sapiens, UniProt P53985+Q96SW2); assay: Targeted degradation of dTAG-tagged SLC16A1 (western blot); settings: HAP1, 0.5 µM, 24, 48 or 72 hours
T3 construct: expressed in transfected cells
Description: (§3) (C)HAP1 cells expressing dTAG-HA SLC1A5, 2A3, 30A9, 35B2, MTCH2, and 33A1 were treated for 24 hours with 0.5 µM of dTAG7 or dTAG13, as indicated. HAP1 cells expressing dTAG-HA SLC2A1 and 16A1 were treated for 24 hrs with 0.5 µM of dTAG7. HAP1 cell lines expressing dTAG-HA SLC39A7, dTAG-HA SLC4A4, and SLC7A3-dTAG-HA were treated for 48 hrs with 0.5 µM of dTAG13.
(§4) SLC1A5, SLC2A1, SLC2A3, SLC16A1, SLC38A1, SLC38A2 were obtained as gateway-compatible pENTR/pDONR vectors from the Harvard PlasmID Repository. SLC39A7 was obtained from Dharmacon, GE Healthcare. The following vectors were synthesized by Genescript: SLC4A4, SLC7A3, SLC38A9, SLC25A1, SLC9A1, SLC9A2, SLC9A3, SLC9A4, SLC9A5, SLC9A6, SLC9A7, SLC9A8, and SLC9B2. […]
as §2
(§5) SLCs were ectopically expressed as fusions to a mutated FKBP domain, also known as the dTAG system. […]

dTAG-HA SLC2A1 = target: T4, dTAG-HA SLC2A1 (Homo sapiens, UniProt P11166+Q96SW2); assay: Targeted degradation of dTAG-tagged SLC2A1 (western blot); settings: HAP1, 0.5 µM, 24, 48 or 72 hours
T4 construct: expressed in transfected cells
Description: as §3, §4, §2, §5

T2 sequence (Q16531 whole entry): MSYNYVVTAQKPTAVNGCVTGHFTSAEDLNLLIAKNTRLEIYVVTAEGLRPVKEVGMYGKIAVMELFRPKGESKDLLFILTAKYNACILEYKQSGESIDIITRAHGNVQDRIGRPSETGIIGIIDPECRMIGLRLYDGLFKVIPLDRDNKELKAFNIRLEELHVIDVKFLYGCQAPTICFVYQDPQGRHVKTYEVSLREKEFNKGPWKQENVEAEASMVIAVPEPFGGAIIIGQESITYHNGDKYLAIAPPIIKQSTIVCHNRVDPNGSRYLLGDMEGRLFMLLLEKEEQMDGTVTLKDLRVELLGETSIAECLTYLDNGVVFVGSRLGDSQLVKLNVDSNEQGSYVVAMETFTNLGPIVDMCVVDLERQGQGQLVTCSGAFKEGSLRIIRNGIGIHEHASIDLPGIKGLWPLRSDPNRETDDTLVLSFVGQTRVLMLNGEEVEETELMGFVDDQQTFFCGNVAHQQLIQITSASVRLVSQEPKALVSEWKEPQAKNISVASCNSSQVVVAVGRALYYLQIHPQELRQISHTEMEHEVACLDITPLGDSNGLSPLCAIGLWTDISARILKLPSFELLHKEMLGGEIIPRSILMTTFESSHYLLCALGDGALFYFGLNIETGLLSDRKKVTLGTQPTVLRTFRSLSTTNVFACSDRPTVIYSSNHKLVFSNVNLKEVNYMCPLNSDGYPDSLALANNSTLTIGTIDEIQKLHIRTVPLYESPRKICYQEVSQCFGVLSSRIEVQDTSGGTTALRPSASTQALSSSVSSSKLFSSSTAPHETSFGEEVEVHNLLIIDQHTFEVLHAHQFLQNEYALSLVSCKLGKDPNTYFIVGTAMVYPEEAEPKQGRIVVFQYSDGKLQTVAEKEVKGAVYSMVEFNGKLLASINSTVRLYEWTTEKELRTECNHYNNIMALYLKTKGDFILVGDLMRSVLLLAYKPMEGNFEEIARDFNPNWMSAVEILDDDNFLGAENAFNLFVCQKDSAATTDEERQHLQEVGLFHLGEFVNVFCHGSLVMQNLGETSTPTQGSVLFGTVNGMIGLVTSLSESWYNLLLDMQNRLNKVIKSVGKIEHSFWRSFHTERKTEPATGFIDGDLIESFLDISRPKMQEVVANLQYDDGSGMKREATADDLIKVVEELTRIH
T2 sequence (Q9H2H9 other isoform, or with tags, fused parts or gaps): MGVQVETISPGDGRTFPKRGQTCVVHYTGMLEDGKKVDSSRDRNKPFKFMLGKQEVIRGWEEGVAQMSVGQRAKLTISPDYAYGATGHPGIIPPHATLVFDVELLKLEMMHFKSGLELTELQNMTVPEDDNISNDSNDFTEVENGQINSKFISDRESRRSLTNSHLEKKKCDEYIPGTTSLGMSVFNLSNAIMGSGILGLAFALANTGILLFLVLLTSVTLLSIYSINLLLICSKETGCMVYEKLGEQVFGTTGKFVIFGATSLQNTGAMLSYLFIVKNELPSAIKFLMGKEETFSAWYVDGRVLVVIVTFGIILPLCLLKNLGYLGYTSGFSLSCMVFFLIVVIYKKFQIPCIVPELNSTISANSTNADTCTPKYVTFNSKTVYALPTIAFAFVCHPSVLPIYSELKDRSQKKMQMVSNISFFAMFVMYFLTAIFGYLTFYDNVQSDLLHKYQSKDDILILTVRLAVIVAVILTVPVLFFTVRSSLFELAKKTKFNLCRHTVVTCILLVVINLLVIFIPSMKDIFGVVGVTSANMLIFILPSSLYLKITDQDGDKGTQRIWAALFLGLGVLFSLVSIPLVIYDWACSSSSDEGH
T2 sequence (Q96SW2 whole entry): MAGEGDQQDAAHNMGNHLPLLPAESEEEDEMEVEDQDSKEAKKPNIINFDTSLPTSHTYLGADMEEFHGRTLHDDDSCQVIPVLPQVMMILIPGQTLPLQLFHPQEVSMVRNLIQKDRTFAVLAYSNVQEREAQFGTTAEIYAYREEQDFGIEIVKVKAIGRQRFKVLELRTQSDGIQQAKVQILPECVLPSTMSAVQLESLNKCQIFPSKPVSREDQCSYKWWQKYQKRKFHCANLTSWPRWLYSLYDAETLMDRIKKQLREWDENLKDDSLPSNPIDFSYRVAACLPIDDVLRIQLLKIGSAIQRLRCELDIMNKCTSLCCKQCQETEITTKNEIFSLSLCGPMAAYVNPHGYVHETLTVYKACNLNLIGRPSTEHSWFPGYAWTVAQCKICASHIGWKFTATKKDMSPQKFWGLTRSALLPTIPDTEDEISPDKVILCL
T4 sequence (P11166 with tags, fused parts or gaps): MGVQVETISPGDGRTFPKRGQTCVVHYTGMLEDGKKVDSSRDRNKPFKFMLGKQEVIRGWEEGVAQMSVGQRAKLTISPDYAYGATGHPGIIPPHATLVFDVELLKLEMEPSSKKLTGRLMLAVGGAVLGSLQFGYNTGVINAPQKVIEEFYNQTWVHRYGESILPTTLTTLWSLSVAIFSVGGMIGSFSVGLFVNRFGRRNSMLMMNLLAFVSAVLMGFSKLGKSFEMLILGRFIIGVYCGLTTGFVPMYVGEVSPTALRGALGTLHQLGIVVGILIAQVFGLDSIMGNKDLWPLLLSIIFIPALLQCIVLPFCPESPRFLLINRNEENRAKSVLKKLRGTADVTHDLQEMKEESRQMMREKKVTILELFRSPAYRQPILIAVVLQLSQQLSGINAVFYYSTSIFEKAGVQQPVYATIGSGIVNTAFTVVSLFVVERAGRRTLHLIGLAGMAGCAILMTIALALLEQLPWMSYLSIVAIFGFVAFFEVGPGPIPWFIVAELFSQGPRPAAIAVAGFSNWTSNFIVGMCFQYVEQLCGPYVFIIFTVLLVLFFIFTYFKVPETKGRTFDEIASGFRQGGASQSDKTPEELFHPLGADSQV
T4 sequence (Q96SW2 whole entry): as the sequence (Q96SW2 whole entry) above
T4 sequence (Q16531 whole entry partner): as the sequence (Q16531 whole entry) above
T1 sequence (Q14940 whole entry): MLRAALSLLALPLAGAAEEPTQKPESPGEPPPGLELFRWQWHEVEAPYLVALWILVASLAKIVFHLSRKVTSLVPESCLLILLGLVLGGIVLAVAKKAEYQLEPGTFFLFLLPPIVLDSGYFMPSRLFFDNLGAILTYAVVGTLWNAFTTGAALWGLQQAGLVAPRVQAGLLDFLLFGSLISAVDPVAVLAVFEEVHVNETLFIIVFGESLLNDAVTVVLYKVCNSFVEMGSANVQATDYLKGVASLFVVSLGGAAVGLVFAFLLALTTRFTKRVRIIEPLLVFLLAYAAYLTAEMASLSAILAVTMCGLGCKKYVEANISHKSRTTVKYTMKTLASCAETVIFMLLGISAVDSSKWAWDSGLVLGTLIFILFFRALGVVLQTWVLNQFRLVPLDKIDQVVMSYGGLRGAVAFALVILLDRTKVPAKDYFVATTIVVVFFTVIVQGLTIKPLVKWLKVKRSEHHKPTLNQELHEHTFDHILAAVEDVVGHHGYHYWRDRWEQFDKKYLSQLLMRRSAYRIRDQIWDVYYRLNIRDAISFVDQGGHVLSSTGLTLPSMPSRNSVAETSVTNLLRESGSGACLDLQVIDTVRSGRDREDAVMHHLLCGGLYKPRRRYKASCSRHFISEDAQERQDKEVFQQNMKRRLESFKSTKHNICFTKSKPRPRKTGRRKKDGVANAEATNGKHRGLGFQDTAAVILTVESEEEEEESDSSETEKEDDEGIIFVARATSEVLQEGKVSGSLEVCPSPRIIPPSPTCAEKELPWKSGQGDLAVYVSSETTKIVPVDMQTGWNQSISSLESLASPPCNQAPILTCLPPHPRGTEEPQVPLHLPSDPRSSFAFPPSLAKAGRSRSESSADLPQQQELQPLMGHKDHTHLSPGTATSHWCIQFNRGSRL
T3 sequence (P53985 with tags, fused parts or gaps): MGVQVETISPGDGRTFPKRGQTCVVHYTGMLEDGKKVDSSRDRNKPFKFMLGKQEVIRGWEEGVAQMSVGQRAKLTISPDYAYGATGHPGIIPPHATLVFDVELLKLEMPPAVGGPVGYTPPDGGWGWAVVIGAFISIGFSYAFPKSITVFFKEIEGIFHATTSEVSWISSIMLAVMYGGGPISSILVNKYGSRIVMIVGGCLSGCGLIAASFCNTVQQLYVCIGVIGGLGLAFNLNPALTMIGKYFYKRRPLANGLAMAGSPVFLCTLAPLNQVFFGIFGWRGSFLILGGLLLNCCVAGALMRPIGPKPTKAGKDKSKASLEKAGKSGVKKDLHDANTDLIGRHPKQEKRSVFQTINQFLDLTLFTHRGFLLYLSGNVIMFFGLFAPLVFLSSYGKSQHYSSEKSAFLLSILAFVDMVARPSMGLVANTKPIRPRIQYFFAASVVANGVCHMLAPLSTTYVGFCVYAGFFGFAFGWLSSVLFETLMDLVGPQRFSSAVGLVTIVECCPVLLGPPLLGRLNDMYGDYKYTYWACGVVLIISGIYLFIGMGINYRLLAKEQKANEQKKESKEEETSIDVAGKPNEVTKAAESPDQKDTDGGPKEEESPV
T3 sequence (Q96SW2 whole entry): as the sequence (Q96SW2 whole entry) above
T3 sequence (Q16531 whole entry partner): as the sequence (Q16531 whole entry) above

SMILES: Cc1cc(-c2ccc(C(=O)NCCOCCOCCOCCOCCNc3cccc4c3C(=O)N(C3CCC(=O)NC3=O)C4=O)cc2N2CCC(c3[nH]cnc3C)CC2)ccc1F (centres unmarked) [d9A1-2]
- abundance of exogenous SLC9A5 (Strep/HA SLC9A5): not significantly affected

SMILES: CC[C@H](C(=O)N1CCCC[C@H]1C(=O)O[C@H](CCc1ccc(OC)c(OC)c1)c1ccccc1OCC(=O)NCCCCCCOc1cccc2c1C(=O)N(C1CCC(=O)NC1=O)C2=O)c1cc(OC)c(OC)c(OC)c1 (some centres unmarked) [dTAG13]
- degradation of the target SLC (dTAG-HA SLC38A1; HAP1, dTAG-HA SLC38A1, 0.5 µM, 16, 24 or 48 hours): Near-complete degradation
- degradation of dTAG-HA SLC38A1 (antibodies against HA-tag and total protein) (dTAG-HA SLC38A1; HAP1 or 293T, PNGase de-glycosylated extracts): completely degraded

SMILES: CC[C@H](C(=O)N1CCCC[C@H]1C(=O)O[C@H](CCc1ccc(OC)c(OC)c1)c1ccccc1OCC(=O)NCCCOCCOCCOCCCNC(=O)COc1cccc2c1C(=O)N(C1CCC(=O)NC1=O)C2=O)c1cc(OC)c(OC)c(OC)c1 (some centres unmarked) [dTAG7]
- reversibility of degradation of the target SLC (dTAG-HA SLC16A1): reversible degradation
- reversibility of degradation of the target SLC (dTAG-HA SLC2A1): reversible degradation
